Assay results as given in PMC9898036, “VIP152 is a selective CDK9 inhibitor with pre-clinical in vitro and in vivo efficacy in chronic lymphocytic leukemia” (Leukemia, 2022).

Legend:
Type in all cases: binding
[1] = biological target: EPHB1 (Homo sapiens, UniProt P54762); test: KINOMEscan: EPHB1; conditions: 1000 nM, read-out: Percent Control
[2] = biological target: SBK1 (Homo sapiens, UniProt Q52WX2); test: KINOMEscan: SBK1; conditions: 100 nM, read-out: Percent Control
[3] = biological target: LIMK2 (Homo sapiens, UniProt P53671); test: KINOMEscan: LIMK2; conditions: 1000 nM, read-out: Percent Control
Sequence of LIMK2 (P53671 whole entry): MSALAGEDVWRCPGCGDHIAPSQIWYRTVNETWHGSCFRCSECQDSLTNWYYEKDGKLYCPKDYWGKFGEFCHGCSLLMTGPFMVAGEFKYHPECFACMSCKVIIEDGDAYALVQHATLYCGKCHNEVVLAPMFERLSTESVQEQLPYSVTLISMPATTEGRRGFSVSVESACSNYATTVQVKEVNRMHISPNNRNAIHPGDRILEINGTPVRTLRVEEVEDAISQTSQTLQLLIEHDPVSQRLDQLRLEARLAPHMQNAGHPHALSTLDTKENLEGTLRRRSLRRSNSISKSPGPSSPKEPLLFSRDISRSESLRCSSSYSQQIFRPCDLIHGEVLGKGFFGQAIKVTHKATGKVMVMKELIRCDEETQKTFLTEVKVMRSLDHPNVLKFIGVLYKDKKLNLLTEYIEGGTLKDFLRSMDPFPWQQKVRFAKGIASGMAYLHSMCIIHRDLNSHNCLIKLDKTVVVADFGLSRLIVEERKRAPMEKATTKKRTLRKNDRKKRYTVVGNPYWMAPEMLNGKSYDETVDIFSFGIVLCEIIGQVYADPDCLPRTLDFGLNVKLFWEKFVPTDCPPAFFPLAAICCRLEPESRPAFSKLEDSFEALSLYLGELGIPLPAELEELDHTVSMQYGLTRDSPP

[4] = biological target: BRSK2 (Homo sapiens, UniProt Q8IWQ3); test: KINOMEscan: BRSK2; conditions: 1000 nM, read-out: Percent Control
[5] = biological target: JNK2 (Homo sapiens, UniProt P45984); test: KINOMEscan: JNK2; conditions: 1000 nM, read-out: Percent Control
[6] = biological target: AURKA (Homo sapiens, UniProt O14965); test: KINOMEscan: AURKA; conditions: 1000 nM, read-out: Percent Control
[7] = biological target: T1, Sigma σ1 (Homo sapiens, UniProt Q99720); test: Eurofins Diversity Panel; conditions: hum
T1 construct: purchased Eurofins
T1 sequence (Q99720 whole entry): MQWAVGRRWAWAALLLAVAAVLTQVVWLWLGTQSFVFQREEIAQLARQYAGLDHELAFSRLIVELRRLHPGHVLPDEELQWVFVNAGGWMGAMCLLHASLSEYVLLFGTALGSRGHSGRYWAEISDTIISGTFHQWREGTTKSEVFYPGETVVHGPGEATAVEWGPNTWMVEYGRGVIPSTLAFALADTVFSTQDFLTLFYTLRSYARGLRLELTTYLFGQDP

[8] = biological target: CDK4 (Homo sapiens, UniProt P11802); test: KINOMEscan: CDK4; conditions: 1000 nM, read-out: Percent Control
[9] = biological target: LATS1 (Homo sapiens, UniProt O95835); test: KINOMEscan: LATS1; conditions: 1000 nM, read-out: Percent Control
[10] = biological target: Histamine H3 (Homo sapiens, UniProt Q9Y5N1); test: Eurofins Diversity Panel; conditions: hum, Conc. 10 μM
[11] = biological target: MEK2 (Homo sapiens, UniProt P36507); test: KINOMEscan: MEK2; conditions: 1000 nM, read-out: Percent Control
[12] = biological target: MET(M1250T) (Homo sapiens, UniProt P08581, M1250T); test: KINOMEscan: MET(M1250T); conditions: 1000 nM, read-out: Percent Control
[13] = biological target: WNK2 (Homo sapiens, UniProt Q9Y3S1); test: KINOMEscan: WNK2; conditions: 100 nM, read-out: Percent Control
[14] = biological target: TESK1 (Homo sapiens, UniProt Q15569); test: KINOMEscan: TESK1; conditions: 100 nM, read-out: Percent Control
[15] = biological target: CDKL1 (Homo sapiens, UniProt Q00532); test: KINOMEscan: CDKL1; conditions: 1000 nM, read-out: Percent Control
[16] = biological target: RSK1(Kin.Dom.2-C-terminal) (Homo sapiens, UniProt Q15418); test: KINOMEscan: RSK1(Kin.Dom.2-C-terminal); conditions: 100 nM, read-out: Percent Control
[17] = biological target: Bradykinin B2 (Homo sapiens, UniProt P30411); test: Eurofins Diversity Panel; conditions: hum, Conc. 10 μM
[18] = biological target: ACVRL1 (Homo sapiens, UniProt P37023); test: KINOMEscan: ACVRL1; conditions: 1000 nM, read-out: Percent Control
[19] = biological target: EPHA8 (Homo sapiens, UniProt P29322); test: KINOMEscan: EPHA8; conditions: 1000 nM, read-out: Percent Control
[20] = biological target: AURKB (Homo sapiens, UniProt Q96GD4); test: KINOMEscan: AURKB; conditions: 1000 nM, read-out: Percent Control
[21] = biological target: MAP3K1 (Homo sapiens, UniProt Q13233); test: KINOMEscan: MAP3K1; conditions: 1000 nM, read-out: Percent Control
Sequence of MAP3K1 (Q13233 whole entry): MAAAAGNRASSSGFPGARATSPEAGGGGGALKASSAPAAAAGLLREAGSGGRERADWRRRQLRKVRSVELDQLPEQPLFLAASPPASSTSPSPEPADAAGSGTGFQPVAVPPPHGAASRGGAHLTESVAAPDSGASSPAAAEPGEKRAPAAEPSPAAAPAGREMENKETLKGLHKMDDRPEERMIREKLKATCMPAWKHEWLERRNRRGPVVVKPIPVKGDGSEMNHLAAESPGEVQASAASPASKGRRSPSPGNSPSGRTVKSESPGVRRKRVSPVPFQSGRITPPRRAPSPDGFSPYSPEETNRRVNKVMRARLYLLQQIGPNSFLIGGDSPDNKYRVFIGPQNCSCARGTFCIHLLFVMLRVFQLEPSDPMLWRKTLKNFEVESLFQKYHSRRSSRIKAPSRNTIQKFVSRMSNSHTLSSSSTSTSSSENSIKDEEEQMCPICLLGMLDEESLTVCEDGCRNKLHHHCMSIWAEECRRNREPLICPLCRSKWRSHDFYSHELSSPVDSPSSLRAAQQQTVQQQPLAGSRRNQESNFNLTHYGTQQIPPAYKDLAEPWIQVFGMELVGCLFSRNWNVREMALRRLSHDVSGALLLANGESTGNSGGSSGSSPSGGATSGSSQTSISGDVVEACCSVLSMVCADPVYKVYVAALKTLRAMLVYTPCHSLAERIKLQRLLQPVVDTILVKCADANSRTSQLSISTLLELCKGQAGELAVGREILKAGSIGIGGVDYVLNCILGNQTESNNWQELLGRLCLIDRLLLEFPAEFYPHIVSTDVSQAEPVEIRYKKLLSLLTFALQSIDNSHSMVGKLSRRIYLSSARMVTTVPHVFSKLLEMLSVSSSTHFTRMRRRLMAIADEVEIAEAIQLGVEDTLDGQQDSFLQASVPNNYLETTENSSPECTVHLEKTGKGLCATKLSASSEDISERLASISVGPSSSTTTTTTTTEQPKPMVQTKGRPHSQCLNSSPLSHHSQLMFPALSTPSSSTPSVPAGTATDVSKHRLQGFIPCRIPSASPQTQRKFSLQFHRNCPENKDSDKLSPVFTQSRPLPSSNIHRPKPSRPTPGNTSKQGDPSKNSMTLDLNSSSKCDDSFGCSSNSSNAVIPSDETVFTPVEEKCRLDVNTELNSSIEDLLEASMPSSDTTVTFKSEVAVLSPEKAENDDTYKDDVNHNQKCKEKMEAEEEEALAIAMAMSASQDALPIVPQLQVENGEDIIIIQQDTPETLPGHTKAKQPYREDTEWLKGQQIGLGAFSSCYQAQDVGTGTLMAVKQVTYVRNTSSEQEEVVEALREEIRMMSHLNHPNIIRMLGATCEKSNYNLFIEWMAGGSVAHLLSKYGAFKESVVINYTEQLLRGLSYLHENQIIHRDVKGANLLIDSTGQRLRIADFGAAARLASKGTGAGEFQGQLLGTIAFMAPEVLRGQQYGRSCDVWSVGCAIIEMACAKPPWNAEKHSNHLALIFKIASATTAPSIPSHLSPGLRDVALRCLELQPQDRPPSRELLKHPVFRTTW

[22] = biological target: ROS1 (Homo sapiens, UniProt P08922); test: KINOMEscan: ROS1; conditions: 100 nM, read-out: Percent Control
[23] = biological target: SLK (Homo sapiens, UniProt Q9H2G2); test: KINOMEscan: SLK; conditions: 100 nM, read-out: Percent Control
[24] = biological target: HPK1 (Homo sapiens, UniProt Q92918); test: KINOMEscan: HPK1; conditions: 1000 nM, read-out: Percent Control
Sequence of HPK1 (Q92918 whole entry): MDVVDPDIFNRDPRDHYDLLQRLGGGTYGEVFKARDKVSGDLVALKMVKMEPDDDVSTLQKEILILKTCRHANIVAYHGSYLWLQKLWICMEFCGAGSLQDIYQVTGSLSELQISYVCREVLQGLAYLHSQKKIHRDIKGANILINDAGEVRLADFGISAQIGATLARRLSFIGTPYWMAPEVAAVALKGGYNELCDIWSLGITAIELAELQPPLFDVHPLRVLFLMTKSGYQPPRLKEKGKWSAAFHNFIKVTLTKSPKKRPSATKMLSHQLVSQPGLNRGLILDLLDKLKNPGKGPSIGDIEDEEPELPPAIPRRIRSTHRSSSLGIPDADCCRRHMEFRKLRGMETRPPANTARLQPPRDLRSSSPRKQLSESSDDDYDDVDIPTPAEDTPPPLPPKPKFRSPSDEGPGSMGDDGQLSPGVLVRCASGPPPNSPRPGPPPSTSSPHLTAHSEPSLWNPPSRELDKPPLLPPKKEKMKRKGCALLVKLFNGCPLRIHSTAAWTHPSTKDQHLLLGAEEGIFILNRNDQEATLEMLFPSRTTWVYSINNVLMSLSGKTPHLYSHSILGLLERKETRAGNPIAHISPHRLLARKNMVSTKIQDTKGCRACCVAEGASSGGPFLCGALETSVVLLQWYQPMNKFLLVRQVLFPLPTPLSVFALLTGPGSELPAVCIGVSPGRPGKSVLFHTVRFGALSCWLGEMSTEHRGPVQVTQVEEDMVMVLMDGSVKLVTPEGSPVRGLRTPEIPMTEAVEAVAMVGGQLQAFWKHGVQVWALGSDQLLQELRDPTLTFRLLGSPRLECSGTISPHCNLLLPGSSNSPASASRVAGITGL

[25] = system: Rolipram; test: Eurofins Diversity Panel; conditions: rat, Conc. 10 μM
[26] = biological target: STK39 (Homo sapiens, UniProt Q9UEW8); test: KINOMEscan: STK39; conditions: 100 nM, read-out: Percent Control
[27] = biological target: MAPKAPK5 (Homo sapiens, UniProt Q8IW41); test: KINOMEscan: MAPKAPK5; conditions: 1000 nM, read-out: Percent Control
[28] = biological target: WNK4 (Homo sapiens, UniProt Q96J92); test: KINOMEscan: WNK4; conditions: 100 nM, read-out: Percent Control
[29] = biological target: RIPK1 (Homo sapiens, UniProt Q13546); test: KINOMEscan: RIPK1; conditions: 100 nM, read-out: Percent Control
Sequence of RIPK1 (Q13546 whole entry): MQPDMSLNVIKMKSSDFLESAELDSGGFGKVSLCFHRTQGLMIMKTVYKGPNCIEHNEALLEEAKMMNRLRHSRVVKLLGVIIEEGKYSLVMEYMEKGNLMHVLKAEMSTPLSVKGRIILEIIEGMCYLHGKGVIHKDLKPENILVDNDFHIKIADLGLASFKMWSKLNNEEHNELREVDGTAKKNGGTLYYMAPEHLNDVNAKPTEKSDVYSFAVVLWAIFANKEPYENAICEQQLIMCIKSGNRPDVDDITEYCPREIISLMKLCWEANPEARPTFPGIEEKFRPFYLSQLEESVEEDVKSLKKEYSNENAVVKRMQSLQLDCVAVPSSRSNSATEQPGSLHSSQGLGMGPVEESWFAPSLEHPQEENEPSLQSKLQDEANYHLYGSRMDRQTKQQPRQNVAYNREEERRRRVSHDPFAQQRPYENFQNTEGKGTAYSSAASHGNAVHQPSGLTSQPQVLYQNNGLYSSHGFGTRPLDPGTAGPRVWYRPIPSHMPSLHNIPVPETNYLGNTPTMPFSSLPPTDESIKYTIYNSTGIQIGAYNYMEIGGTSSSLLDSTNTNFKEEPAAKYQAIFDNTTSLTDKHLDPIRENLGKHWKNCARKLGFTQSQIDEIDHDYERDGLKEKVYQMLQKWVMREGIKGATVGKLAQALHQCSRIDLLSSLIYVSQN

[30] = biological target: MLCK (Homo sapiens, UniProt Q32MK0); test: KINOMEscan: MLCK; conditions: 1000 nM, read-out: Percent Control
[31] = biological target: CDKL2 (Homo sapiens, UniProt Q92772); test: KINOMEscan: CDKL2; conditions: 1000 nM, read-out: Percent Control
[32] = biological target: MELK (Homo sapiens, UniProt Q14680); test: KINOMEscan: MELK; conditions: 1000 nM, read-out: Percent Control
[33] = biological target: CLK1 (Homo sapiens, UniProt P49759); test: KINOMEscan: CLK1; conditions: 1000 nM, read-out: Percent Control
[34] = biological target: EGFR (Homo sapiens, UniProt P00533); test: KINOMEscan: EGFR; conditions: 1000 nM, read-out: Percent Control
Sequence of EGFR (P00533 25-1210): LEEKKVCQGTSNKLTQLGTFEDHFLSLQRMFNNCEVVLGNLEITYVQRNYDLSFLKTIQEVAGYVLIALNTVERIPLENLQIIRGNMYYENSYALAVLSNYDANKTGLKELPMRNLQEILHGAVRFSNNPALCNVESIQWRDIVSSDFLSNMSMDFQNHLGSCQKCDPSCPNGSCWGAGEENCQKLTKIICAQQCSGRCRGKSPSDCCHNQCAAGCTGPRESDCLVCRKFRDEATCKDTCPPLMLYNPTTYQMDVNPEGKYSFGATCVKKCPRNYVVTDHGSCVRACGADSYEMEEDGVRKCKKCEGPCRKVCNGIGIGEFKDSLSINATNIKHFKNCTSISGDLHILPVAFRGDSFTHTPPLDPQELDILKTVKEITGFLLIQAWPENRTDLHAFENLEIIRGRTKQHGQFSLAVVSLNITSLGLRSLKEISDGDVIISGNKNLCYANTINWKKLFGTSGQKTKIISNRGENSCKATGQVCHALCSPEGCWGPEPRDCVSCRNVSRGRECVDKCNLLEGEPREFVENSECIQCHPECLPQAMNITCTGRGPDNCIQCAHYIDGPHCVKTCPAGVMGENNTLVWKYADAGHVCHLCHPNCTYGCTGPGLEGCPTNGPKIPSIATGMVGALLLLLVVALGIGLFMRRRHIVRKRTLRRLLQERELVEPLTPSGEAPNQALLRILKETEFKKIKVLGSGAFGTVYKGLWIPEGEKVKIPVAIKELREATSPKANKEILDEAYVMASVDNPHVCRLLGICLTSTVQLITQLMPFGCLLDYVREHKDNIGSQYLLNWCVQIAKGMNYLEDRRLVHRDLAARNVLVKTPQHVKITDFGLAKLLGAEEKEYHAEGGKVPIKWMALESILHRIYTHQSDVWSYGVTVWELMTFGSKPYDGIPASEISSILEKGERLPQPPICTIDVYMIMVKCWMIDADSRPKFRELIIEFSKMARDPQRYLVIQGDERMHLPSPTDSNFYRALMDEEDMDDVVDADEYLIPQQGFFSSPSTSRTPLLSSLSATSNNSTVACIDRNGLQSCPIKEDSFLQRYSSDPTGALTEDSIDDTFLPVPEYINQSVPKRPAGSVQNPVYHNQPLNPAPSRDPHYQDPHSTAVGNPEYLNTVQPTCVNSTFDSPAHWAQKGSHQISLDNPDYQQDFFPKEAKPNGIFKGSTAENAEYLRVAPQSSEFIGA

[35] = biological target: PKNB(M.tuberculosis) (Mycobacterium tuberculosis, UniProt P9WI81); test: DiscoverX KINOMEscan kinase profiling: PKNB(M.tuberculosis); conditions: PKNB(M.tuberculosis) (Entrez pknB); 100 nM; read-out: Percent Control
[36] = biological target: MAK (Homo sapiens, UniProt P20794); test: KINOMEscan: MAK; conditions: 1000 nM, read-out: Percent Control
[37] = biological target: DRAK1 (Homo sapiens, UniProt Q9UEE5); test: KINOMEscan: DRAK1; conditions: 1000 nM, read-out: Percent Control
[38] = biological target: MLK1 (Homo sapiens, UniProt P80192); test: KINOMEscan: MLK1; conditions: 1000 nM, read-out: Percent Control
[39] = biological target: DRAK2 (Homo sapiens, UniProt O94768); test: KINOMEscan: DRAK2; conditions: 1000 nM, read-out: Percent Control

COc1cc(F)ccc1-c1cc(Nc2cc(CS(C)(=N)=O)ccn2)ncc1F (stereo not drawn) [VIP152]
remaining binding at 1 µM [1]: 99%
remaining binding at 0.1 µM [2]: 95%
remaining binding at 1 µM [3]: 91%
remaining binding at 1 µM [4]: 100%
remaining binding at 1 µM [5]: 83%
remaining binding at 1 µM [6]: 41%
IC50 [7]: 1780 nM
Ki [7]: 750 nM
nH [7]: 0.75
inhibition at 10 µM ([7]; Conc. 10 μM): 71%
remaining binding at 1 µM [8]: 71%
remaining binding at 1 µM [9]: 62%
inhibition at 10 µM [10]: -4%
remaining binding at 1 µM [11]: 88%
remaining binding at 1 µM [12]: 27%
remaining binding at 0.1 µM [13]: 100%
remaining binding at 0.1 µM [14]: 100%
remaining binding at 1 µM [15]: 63%
remaining binding at 0.1 µM [16]: 100%
inhibition at 10 µM [17]: 9%
remaining binding at 1 µM [18]: 38%
remaining binding at 1 µM [19]: 100%
remaining binding at 1 µM [20]: 57%
remaining binding at 1 µM [21]: 78%
remaining binding at 0.1 µM [22]: 100%
remaining binding at 0.1 µM [23]: 91%
remaining binding at 1 µM [24]: 85%
% Inh. [25]: 1%
remaining binding at 0.1 µM [26]: 100%
remaining binding at 1 µM [27]: 89%
remaining binding at 0.1 µM [28]: 100%
remaining binding at 0.1 µM [29]: 100%
remaining binding at 1 µM [30]: 100%
remaining binding at 1 µM [31]: 18%
remaining binding at 1 µM [32]: 96%
remaining binding at 1 µM [33]: 71%
remaining binding at 1 µM [34]: 81%
remaining binding at 0.1 µM [35]: 100%
remaining binding at 1 µM [36]: 84%
remaining binding at 1 µM [37]: 71%
remaining binding at 1 µM [38]: 76%
remaining binding at 1 µM [39]: 100%
